This note sets out measurements from US20230150924A1, “NOVEL COMPOUND HAVING CANCER METASTASIS INHIBITORY ACTIVITY, PREPARATION METHOD THEREFOR, AND PHARMACEUTICAL COMPOSITION FOR INHIBITING CANCER METASTASIS AND INVASION OR TREATING COLORECTAL CANCER, COMPRISING COMPOUND” (CELLGENTEK CO., LTD., priority 2019, published 2023).

The test system of experiment [1] is invasion of colorectal cancer cells. The experiment can be described thus: In vivo relative invation (invasion; EV and KITENIN controls, no method described). Particulars: relative to EV (=1); KIT = KITENIN.
Another experiment deals with KAI1 promoter. The experiment is described as follows: KAI1 promoter luciferase reporter assay in transfected Caco2 cells. It is filed as cell-based, human. Particulars: Homo sapiens, Caco-2, 16 h, 1 μM compound, 16 hours, transfected Caco2 cells, luciferase activity relative to DMSO control (=1); read-out: Relative KAI promoter activity.

As to `CCN(Cc1ccc(C(=O)NCC(=O)c2ccccc2)cc1)c1ccccc1` [Example 263, 4-((ethyl(phenyl)amino)methyl)-N-(2-oxo-2-phenylethyl)benzamide], the “In vivo relative invation” value in experiment [1] is 1.301. Further, the fold induction at 1 µM in the experiment on KAI1 promoter came out at 2.23.
Turning to `Cc1cccc(C(=O)NCC(=O)c2ccccc2)c1` [Example 13, 3-methyl-N-(2-oxo-2-phenylethyl)benzamide], in experiment [1], the “In vivo relative invation” value is 0.8565. Also, the fold induction at 1 µM in the experiment on KAI1 promoter worked out at 1.73.
For `O=C(CNS(=O)(=O)c1ccc(F)cc1)c1ccc(Cl)cc1` [Example 67, N-(2-(4-chlorophenyl)-2-oxoethyl)-4-fluorobenzenesulfonamide], in that order: 1.175 and 0.87.
Taken in the same sequence, the figures for `COc1cccc(C(=O)CNC(=O)c2cccc(CN3CCN(CCO)CC3)c2)c1` [Example 292, 3-((4-(2-hydroxyethyl)piperazin-1-yl)methyl)-N-(2-(3-methoxyphenyl)-2-oxoethyl)benzamide] were 1.238 and 1.45.
Taken in the same sequence, the figures for `CN(C)c1ccc(C(=O)CNC(=O)c2ccccc2C(F)(F)F)cc1` [Example 112, N-(2-(4-(dimethylamino)phenyl)-2-oxoethyl)-2-(trifluoromethyl)benzamide] were 0.9835 and 2.82.
In the case of `C=CC(=O)N1CCC(Oc2ccccc2C(=O)NCC(=O)c2ccccc2)CC1` [Example 160, 2-((1-acryloylpiperidin-4-yl)oxy)-N-(2-oxo-2-phenylethyl)benz amide], the “In vivo relative invation” value in experiment [1] came out at 1.067. In addition, the fold induction at 1 µM with KAI1 promoter was 1.05.
For `O=C(CNC(=O)c1ccc(CN2CCc3ccccc3C2)cc1)c1ccccc1` [Example 254, 4-((3,4-dihydroisoquinolin-2(1H)-yl)methyl)-N-(2-oxo-2-phenylethyl)benzamide], in that order: 0.9143 and 2.08.
For `CN(CCO)Cc1ccc(C(=O)NCC(=O)c2ccccc2)cc1` [Example 267, 4-(((2-hydroxyethyl) (methyl)amino)methyl)-N-(2-oxo-2-phenylethyl)benzamide], in that order: 0.9046 and 3.56.
Taken in the same sequence, the figures for `O=C(CNC(=O)c1cc(C(F)(F)F)cc(C(F)(F)F)c1)c1ccc(Cl)cc1` [Example 72, N-(2-(4-chlorophenyl)-2-oxoethyl)-3,5-bis(trifluoromethyl)benzamide] were 1.044 and 0.8.
`O=C(CNS(=O)(=O)Cc1ccccc1)c1ccc(Cl)cc1` [Example 70, N-(2-(4-chlorophenyl)-2-oxoethyl)-1-phenylmethanesulfonamide]: the “In vivo relative invation” value in experiment [1] was 1.274. Further, the fold induction at 1 µM in the experiment with KAI1 promoter turned out to be 0.81.
For `CN(C)c1ccc(C(=O)CNC(=O)CC(C)(C)C)cc1` [Example 102, N-(2-(4-(dimethylamino)phenyl)-2-oxoethyl)-3,3-dimethylbutanamide], in that order: 1.121 and 2.53.
As for `COCC(=O)NCC(=O)c1ccc(N(C)C)cc1` [Example 106, N-(2-(4-(dimethylamino)phenyl)-2-oxoethyl)-2-methoxyacetamide], the “In vivo relative invation” value in experiment [1] turned out to be 1.171. In the experiment on KAI1 promoter, the fold induction at 1 µM was 2.44.
Regarding `COc1ccc(C(=O)N2CCC(Oc3ccccc3C(=O)NCC(=O)c3ccccc3)CC2)cc1` [Example 173, 2-((1-(4-methoxybenzoyl)piperidin-4-yl)oxy)-N-(2-oxo-2-phenylethyl)benzamide], in experiment [1], the “In vivo relative invation” value turned out to be 1.121. Moreover, the fold induction at 1 µM in the experiment on KAI1 promoter worked out at 1.07.
For `CC(C)NC(=O)COc1ccccc1C(=O)NCC(=O)c1ccccc1` [Example 226, 2-(2-(isopropylamino)-2-oxoethoxy)-N-(2-oxo-2-phenylethyl)benzamide], in that order: 1.349 and 1.09.
Taken in the same sequence, the figures for `CCCCN(CC)Cc1cccc(C(=O)NCC(=O)c2ccccc2)c1` [Example 249, 3-((butyl(ethyl)amino)methyl)-N-(2-oxo-2-phenylethyl)benzamide] were 1.113 and 1.35.
For `O=C(CNC(=O)c1cccc(CN2CCN(c3ccccn3)CC2)c1)c1ccccc1` [Example 240, N-(2-oxo-2-phenylethyl)-3-((4-(pyridin-2-yl)piperazin-1-yl)methyl)benzamide], in that order: 1.1 and 1.3.
As for `CN(C)Cc1ccccc1C(=O)NCC(=O)c1ccccc1` [Example 296, 2-((dimethylamino)methyl)-N-(2-oxo-2-phenylethyl)benzamide], the “In vivo relative invation” value in experiment [1] was found to be 1.026. Moreover, the fold induction at 1 µM in the experiment on KAI1 promoter is 1.53.
For `CCC(=O)NCC(=O)c1ccc(N2CCOCC2)cc1` [Example 142, N-(2-(4-morpholinophenyl)-2-oxoethyl)propionamide], in that order: 1.8 and 1.12.
For `O=C(CNC(=O)c1cccc(Cl)c1)c1ccccc1` [Example 7, 3-chloro-N-(2-oxo-2-phenylethyl)benzamide], in that order: 1.091 and 1.2.
In the case of `O=C(CNC(=O)c1ccccc1OC1CCN(C(=O)c2cc(Cl)cc(Cl)c2)CC1)c1ccccc1` [Example 197, 2-((1-(3,5-dichlorobenzoyl)piperidin-4-yl)oxy)-N-(2-oxo-2-phenylethyl)benzamide], the “In vivo relative invation” value in experiment [1] was found to be 1.214. Also, in the experiment with KAI1 promoter, the fold induction at 1 µM was 0.92.
Taken in the same sequence, the figures for `CN(Cc1ccccc1)Cc1cccc(C(=O)NCC(=O)c2ccccc2)c1` [Example 242, 3-((benzyl(methyl)amino)methyl)-N-(2-oxo-2-phenylethyl)benzamide] were 1.146 and 1.17.
For `C=CCNC(=O)COc1ccccc1C(=O)NCC(=O)c1ccccc1` [Example 203, 2-(2-(allylamino)-2-oxoethoxy)-N-(2-oxo-2-phenylethyl)benzamide], in that order: 1.178 and 1.05.
For `O=C(CNC(=O)c1ccc(OC(F)(F)F)cc1)c1ccc(Cl)cc1` [Example 81, N-(2-(4-chlorophenyl)-2-oxoethyl)-4-(trifluoromethoxy)benzamide], in that order: 1.142 and 0.8.
With `CCOC(=O)N1CCN(Cc2ccccc2C(=O)NCC(=O)c2ccccc2)CC1` [Example 305, ethyl 4-(2-((2-oxo-2-phenylethyl)carbamoyl)benzyl)piperazine-1-carboxylate], in experiment [1], the “In vivo relative invation” value was 1.186. Also, the fold induction at 1 µM with KAI1 promoter was found to be 1.14.
For `O=C(CNC(=O)c1ccc(C(F)(F)F)cc1)c1ccc(Cl)cc1` [Example 75, N-(2-(4-chlorophenyl)-2-oxoethyl)-4-(trifluoromethyl)benzamide], in that order: 1.283 and 0.71.
Taken in the same sequence, the figures for `O=C(CNC(=O)c1ccccc1OCC(=O)N1CCc2ccccc2C1)c1ccccc1` [Example 227, 2-(2-(3,4-dihydroisoquinolin-2 (1H)-yl)-2-oxoethoxy)-N-(2-oxo-2-phenylethyl)benzamide] were 1.153 and 1.01.
Taken in the same sequence, the figures for `CCN(CCO)Cc1ccc(C(=O)NCC(=O)c2ccccc2)cc1` [Example 274, 4-((ethyl(2-hydroxyethyl)amino)methyl)-N-(2-oxo-2-phenylethyl)benzamide] were 1.219 and 5.27.
For the compound `C/C=C/C(=O)NCC(=O)c1ccc(Cl)cc1` [Example 48, (E)-N-(2-(4-chlorophenyl)-2-oxoethyl)but-2-enamide], the “In vivo relative invation” value in experiment [1] amounted to 1.19. Moreover, the fold induction at 1 µM in the experiment with KAI1 promoter stood at 0.85.
Taken in the same sequence, the figures for `CN(C)c1ccc(C(=O)CNS(=O)(=O)Cc2ccccc2)cc1` [Example 110, N-(2-(4-(dimethylamino)phenyl)-2-oxoethyl)-1-phenylmethanesulfonamide] were 1.009 and 1.49.
For `O=C(CNC(=O)c1ccccc1CN1CCN(c2ccccn2)CC1)c1ccccc1` [Example 302, N-(2-oxo-2-phenylethyl)-2-((4-(pyridin-2-yl)piperazin-1-yl)methyl)benzamide], in that order: 1.175 and 1.41.
Taken in the same sequence, the figures for `O=C(CNC(=O)C1CCCCC1)c1ccc(Cl)cc1` [Example 55, N-(2-(4-chlorophenyl)-2-oxoethyl)cyclohexanecarboxamide] were 1.179 and 0.67.
For `CCCc1ccc(NC(=O)COc2ccccc2C(=O)NCC(=O)c2ccccc2)cc1` [Example 213, 2-(2-oxo-2-((4-propylphenyl)amino)ethoxy)-N-(2-oxo-2-phenylethyl)benzamide], the “In vivo relative invation” value in experiment [1] stood at 1.209. For the same compound, the fold induction at 1 µM in the experiment with KAI1 promoter is 1.14.
For `COc1cccc(C(=O)CNC(=O)c2cccc(CN(C)C3CCCCC3)c2)c1` [Example 280, 3-((cyclohexyl(methyl)amino)methyl)-N-(2-(3-methoxyphenyl)-2-oxoethyl)benzamide], in that order: 1.195 and 1.63.
Taken in the same sequence, the figures for `O=C(CNC(=O)c1cccc(CN2CCOCC2)c1)c1ccccc1` [Example 252, 3-(morpholinomethyl)-N-(2-oxo-2-phenylethyl)benzamide] were 1.165 and 1.56.
For `O=C(CNC(=O)c1ccccc1OC1CCN(C(=O)c2cccc(C(F)(F)F)c2)CC1)c1ccccc1` [Example 192, N-(2-oxo-2-phenylethyl)-2-((1-(3-(trifluoromethyl)benzoyl)piperidin-4-yl)oxy)benzamide], in that order: 1.25 and 0.92.
